Assay results published in US20120316105A1, “Polymyxin Derivates Useful As Antibacterial Agents” (priority 2011, published 2012).
Where two headings read alike, the source gives them in different places. Bridge positions count the residues as written; N and C are the ends. Square brackets hold non-standard residues; d marks the D form. Peptide text beside a SMILES is read from it. * marks the point of attachment. X3 = O=C(c1ccnc(-c2cccc(Cl)c2)c1)*; X32 = N#Cc1cc(C(=O)*)ccc1-c1ccccc1; X35 = N#Cc1ccc(C(=O)*)cc1-c1ccccc1; 2Naphthoyl = O=C(c1ccc2ccccc2c1)*; X31 = O=C(c1ccnc(-c2ccccc2Cl)c1)*; X5 = O=C(c1ccnc(-c2cccc(F)c2)c1)*; X7 = O=C(c1ccnc(-c2ccccc2F)c1)*; Dab = NCC[C@H](N)C(=O)O; Dap = NC[C@H](N)C(=O)O

What was measured:
[1] = tested on: EC-1, mouse virulent strain of Escherichia coli; type: cell-based; conditions: E. coli EC-1; overnight incubation, lower of duplicate values; trifluoroacetate salt (Example 1 and PMB sulfate)
Method: (§1) Minimum bactericidal concentration (MBC, mg/L), minimum inhibitory concentration (MIC, mg/L), and human renal proximal tubule epithelial cell line cytotoxicity concentration 50% (hRPTEC, TC50, micromolar) for compounds of Formula I are listed in Table 2. The compounds of Formula I were tested as the corresponding trifluoroacetate salt except for Example 1 which was tested as the sulfate salt. For Table 2 below: PMB=polymyxin B as the sulfate salt (Bedford Laboratories, pharmaceutical grade); PMB1=polymyxin B1 as the trifluoroacetate salt; Nona=polymyxin B nonapeptide as the trifluoroacetate salt. PMB1 and Nona were prepared using the solid phase methodology described in the experimental section herein.
(§2) The in vitro antibacterial activity of compounds of Formula I was evaluated by MIC testing according to Clinical and Laboratory Standards Institute (CLSI). See: Clinical and Laboratory Standards Institute. Methods for Dilution Antimicrobial Susceptibility Tests for Bacteria that Grow Aerobically; Approved Standard-Eighth Edition. CLSI document M7-A8 [ISBN 1-56238-689-1]. Clinical and Laboratory Standards Institute, 940 West Valley Road, Suite 1400, Wayne, Pa. 19087-1898 USA, 2006; also Clinical and Laboratory Standards Institute. Performance Standards for Antimicrobial Susceptibility Testing; Twentieth Informational Supplement. CLSI document M100-S20 [ISBN 1-56238-716-2]. Clinical and Laboratory Standards Institute. Methods for Determining Bactericidal Activity of Antimicrobial Agents; Approved Guideline. CLSI document M26-A (ISBN 1-56238-384-1). CLSI, 940 West Valley Road, Suite 1400, Wayne, Pa. 19087-1898 USA, 1999.
(§3) The MIC determination is a standard laboratory method for evaluating the antibacterial activity of a compound. The MIC represents the lowest drug concentration that inhibits visible growth of bacteria following overnight incubation. […] Typically, the drug concentration range is broken down into 2-fold increments (e.g. 0.06 mg/L, 0.12 mg/L, 0.25 mg/L, 0.50 mg/L, 1.0 mg/L, etc.) and the various drug concentrations are all individually incubated overnight with approximately the same number of bacteria. The MIC is then determined by visually inspecting the drug effect at each concentration, and identifying the lowest drug concentration that has inhibited bacterial growth as compared to the drug free control. Typically, bacteria continue to grow at drug concentrations lower than the MIC and don't grow at concentrations at and above the MIC.
(§4) The MIC values described in Table 2 below were derived from assays wherein each test compound was evaluated in duplicate. In cases where the duplicate values varied by 0-2-fold, the lower of the two values was reported below. Generally speaking, if the duplicate values varied by more than 2-fold, the assay was considered non-valid and was repeated until the variation between duplicate runs was ≦2-fold. In line with the CLSI guidelines referred to above, both control organisms and reference compounds were utilized in each MIC assay to provide proper quality control. MIC values generated with these control organisms and reference compounds were required to fall within a defined range for the assay to be considered valid and be included herein. Those skilled in the art will recognize that MIC values can and do vary from experiment to experiment. Generally speaking, it should be recognized that MIC values often vary +/−2-fold from experiment to experiment. While a single MIC is reported for each compound and each microorganism, the reader should not conclude that each compound was only tested once. Several of the compounds were subjected to multiple tests. The data reported in Table 2 is reflective of the compounds relative activity and different MICs may have been generated on these occasions in line with the guidelines described above.
The following bacterial strains were used in these MIC determinations:
EC-1 is a mouse virulent strain of Escherichia coli.

[2] = tested on: Pseudomonas aeruginosa strain PA01; type: cell-based; conditions: strain
Method: as §1, §2, §3, §4
(§5) The following bacterial strains were used in these MIC determinations: […]

[3] = tested on: PA-1646, polymyxin-resistant clinical isolate of Pseudomonas aeruginosa; type: cell-based; conditions: PA-1646, polymyxin-resistant clinical isolate of
Method: as §1, §2, §3, §4, §5

[4] = tested on: AB-1649, polymyxin-resistant clinical isolate of Acinetobacter baumannii; type: cell-based; conditions: AB-1649, polymyxin-resistant clinical isolate of
Method: as §1, §2, §3, §4, §5

[5] = tested on: AB-3167, clinical isolate of Acinetobacter baumannii; type: cell-based
Method: as §1, §2, §3, §4, §5

[6] = tested on: AB-1649, polymyxin-resistant clinical isolate of Acinetobacter baumannii; type: cell-based; conditions: AB-1649, polymyxin-resistant clinical isolate of; remark: listed apart in the source
Method: as §1, §2
AB-1649 is a polymyxin-resistant clinical isolate of Acinetobacter baumannii obtained from JMI labs (www.jmilabs.com);

[7] = tested on: PA-1646, polymyxin-resistant clinical isolate of Pseudomonas aeruginosa; type: cell-based; conditions: PA-1646, polymyxin-resistant clinical isolate of; remark: listed apart in the source
Method: as §1, §2
PA-1646 is a polymyxin-resistant clinical isolate of Pseudomonas aeruginosa obtained from JMI labs (www.jmilabs.com);

[8] = Cytotoxicity assay (LDH release), hRPTEC; type: cell-based, human; conditions: human
Method: as §1
Human Renal Proximal Tubule Epithelial cells (hRPTEC) were obtained from Lonza (Walkersville, Md., USA) and cultured in REGM (Renal Epithelial Cell Basal Medium supplemented with human epithelial growth factor, hydrocortisone, epinephrine, insulin, triiodothyronine, transferrin, gentamycin/amphotericin-B, and fetal bovine serum). The hRPTEC cells were seeded into 96-well plates and incubated at 37° C. in 5% CO2. Following a growth period of 72 hours, cells were treated with compounds at 100, 67, 44, 30, 20 and 13 micromolar for 24 hours at 37° C. in 5% CO2. The cell supernatant was then harvested for determination of LDH (lactate dehydrogenase) production. The Cytotoxicity Detection Kit from Roche was used for the measurement of LDH activity released from damaged cells. The Toxic Concentration 50% (TC50, micromolar) values were determined for each compound and compared to the control compounds (polymyxin B was used as a positive control and polymyxin B nonapepetide was used as negative control).

| SMILES | EC-1 MIC [1] [µg/mL] | PA01 MIC [2] [µg/mL] | PA-1646 MIC [3] [µg/mL] | AB-1649 MIC [4] [µg/mL] | AB-3167 MIC ([5]; AB-3167, clinical isolate of) [µg/mL] | AB-1649 MBC [6] [µg/mL] | PA-1646 MBC [7] [µg/mL] | CC50 at 24 h [8] [µM] | AB-3167 MIC ([5]; A. baumannii AB-3167, overnight incubation, lower of duplicate values, trifluoroacetate salt (Example 1 and PMB sulfate)) [µg/mL] |
| --- | --- | --- | --- | --- | --- | --- | --- | --- | --- |
| CC(C)C[C@@H]1NC(=O)[C@@H](Cc2ccccc2)NC(=O)[C@H](CCN)NC(=O)[C@@H](NC(=O)[C@H](CN)NC(=O)[C@@H](NC(=O)[C@H](CCN)NC(=O)c2ccc(C#N)c(-c3ccccc3)c2)[C@@H](C)O)CCNC(=O)[C@H]([C@@H](C)O)NC(=O)[C@H](CCN)NC(=O)[C@H](CCN)NC1=O [Example 2] (X35-[Dab]T[Dap][Dab][Dab][dF]L[Dab][Dab]T; lactam 4-C) | 0.125 | 0.25 | 2 | 0.5 | 0.25 | 0.5 | 4 | 39 |  |
| CC(C)C[C@@H]1NC(=O)[C@@H](Cc2ccccc2)NC(=O)[C@H](CCN)NC(=O)[C@@H](NC(=O)[C@H](CN)NC(=O)[C@@H](NC(=O)[C@H](CCN)NC(=O)c2ccnc(-c3cccc(Cl)c3)c2)[C@@H](C)O)CCNC(=O)[C@H]([C@@H](C)O)NC(=O)[C@H](CCN)NC(=O)[C@H](CCN)NC1=O [Example 3] (X3-[Dab]T[Dap][Dab][Dab][dF]L[Dab][Dab]T; lactam 4-C) | 0.125 | 0.5 | 1 | 0.5 | 0.25 | 0.5 | 1 | 34 |  |
| CC(C)C[C@@H]1NC(=O)[C@@H](Cc2ccccc2)NC(=O)[C@H](CCN)NC(=O)[C@@H](NC(=O)[C@H](CN)NC(=O)[C@@H](NC(=O)[C@H](CCN)NC(=O)c2ccnc(-c3ccccc3Cl)c2)[C@@H](C)O)CCNC(=O)[C@H]([C@@H](C)O)NC(=O)[C@H](CCN)NC(=O)[C@H](CCN)NC1=O [Example 4] (X31-[Dab]T[Dap][Dab][Dab][dF]L[Dab][Dab]T; lactam 4-C) | 0.125 | 0.5 | 4 | 1 | 0.25 | 1 | 16 | 86 |  |
| CC(C)C[C@@H]1NC(=O)[C@@H](Cc2ccccc2)NC(=O)[C@H](CCN)NC(=O)[C@@H](NC(=O)[C@H](CN)NC(=O)[C@@H](NC(=O)[C@H](CCN)NC(=O)c2ccnc(-c3ccccc3F)c2)[C@@H](C)O)CCNC(=O)[C@H]([C@@H](C)O)NC(=O)[C@H](CCN)NC(=O)[C@H](CCN)NC1=O [Example 5] (X7-[Dab]T[Dap][Dab][Dab][dF]L[Dab][Dab]T; lactam 4-C) | 0.125 | 0.5 | 2 | 1 |  | 1 | 4 | 83 | 0.125 |
| CC(C)C[C@@H]1NC(=O)[C@@H](Cc2ccccc2)NC(=O)[C@H](CCN)NC(=O)[C@@H](NC(=O)[C@H](CN)NC(=O)[C@@H](NC(=O)[C@H](CCN)NC(=O)c2ccc3ccccc3c2)[C@@H](C)O)CCNC(=O)[C@H]([C@@H](C)O)NC(=O)[C@H](CCN)NC(=O)[C@H](CCN)NC1=O [Example 6] (2Naphthoyl-[Dab]T[Dap][Dab][Dab][dF]L[Dab][Dab]T; lactam 4-C) | 0.125 | 0.5 | 4 | 2 | 0.25 | 2 | 16 | 51 |  |
| CC(C)C[C@@H]1NC(=O)[C@@H](Cc2ccccc2)NC(=O)[C@H](CCN)NC(=O)[C@@H](NC(=O)[C@H](CN)NC(=O)[C@@H](NC(=O)[C@H](CCN)NC(=O)c2ccnc(-c3cccc(F)c3)c2)[C@@H](C)O)CCNC(=O)[C@H]([C@@H](C)O)NC(=O)[C@H](CCN)NC(=O)[C@H](CCN)NC1=O [Example 7] (X5-[Dab]T[Dap][Dab][Dab][dF]L[Dab][Dab]T; lactam 4-C) | 0.125 | 0.5 | 2 | 1 | 0.25 | 1 | 8 | 41 |  |
| CC(C)C[C@@H]1NC(=O)[C@@H](Cc2ccccc2)NC(=O)[C@H](CCN)NC(=O)[C@@H](NC(=O)[C@H](CN)NC(=O)[C@@H](NC(=O)[C@H](CCN)NC(=O)c2ccc(-c3ccccc3)c(C#N)c2)[C@@H](C)O)CCNC(=O)[C@H]([C@@H](C)O)NC(=O)[C@H](CCN)NC(=O)[C@H](CCN)NC1=O [Example 8] (X32-[Dab]T[Dap][Dab][Dab][dF]L[Dab][Dab]T; lactam 4-C) | 0.5 | 1 | 2 | 1 | 0.25 | 1 | 4 | 32 |  |
